What was measured:
[1] = target: Tubulin; experiment: Inhibition of tubulin polymerization (unknown origin); type: protein-complex assay, Homo sapiens
[2] = test system: MCF7; experiment: Antiproliferative activity against human MCF7 cells; type: functional, cell-based
[3] = test system: A549; experiment: Antiproliferative activity against human A549 cells; type: functional, cell-based
[4] = test system: DU-145; experiment: Antiproliferative activity against human DU145 cells after 48 hrs by MTT assay; type: functional, cell-based; settings: DU-145, 48 h
[5] = Inhibition of [3H]colchicine binding to bovine brain tubulin after 20 mins by spectrophotometric analysis; design: species or system Bos taurus
[6] = test system: L929; experiment: Cytotoxicity against mouse L929 cells after 72 hrs by MTT assay; type: cell-based; settings: L929, 72 h
[7] = test system: KB; experiment: Antiproliferative activity against human KB cells after 72 hrs by MTT assay; type: functional, cell-based
[8] = test system: HT-1080; experiment: Antiproliferative activity against human HT1080 cells after 72 hrs by MTT assay; type: functional, cell-based; settings: HT-1080, 72 h
[9] = test system: SGC-7901; experiment: Antiproliferative activity against human SGC7901 cells after 72 hrs by MTT assay; type: functional, cell-based; settings: SGC-7901, 72 h

COc1ccc(N2C(=O)CSC2c2cc(OC)c(OC)c(OC)c2)cc1 (stereo not given)
IC50 [1]: 2120 nM

COc1cc(/C=C(\c2cc(OC)c(OC)c(OC)c2)c2nc3cc(OC)c(OC)cc3o2)ccc1O
IC50 [2]: < 100 nM
IC50 [3]: < 100 nM

COc1cc(/C=C(\c2cc(OC)c(OC)c(OC)c2)c2nnc(-c3cc(OC)c(OC)c(OC)c3)o2)ccc1O
IC50 [4]: 100 nM

CCOc1ccc(-c2cc(C)nn2-c2cc(OC)c(OC)c(OC)c2)cc1Cl
IC50 [1]: 1700 nM

CCOc1ccc(-c2nccn2-c2cc(OC)c(OC)c(OC)c2)cc1Cl
IC50 [5]: 870 nM

COc1cc(-n2c(C)ccc2-c2cc(OC)c(OC)c(OC)c2)ccc1N
IC50 [6]: 30100 nM
IC50 [7]: 45 nM
IC50 [8]: 70 nM
IC50 [9]: 390 nM
